Reference: paper PMC11879692, “PDE4 inhibitor rolipram represses hedgehog signaling via ubiquitin-mediated proteolysis of GLI transcription factors to regress breast cancer” (The Journal of Biological Chemistry, 2025)

What was measured:
GLI1 = experiment: Immunohistochemistry of tumor tissue, GLI1; type: in vivo, BALB/c mice
Description: (§1) Solid tumors were developed in BALB/c mice (n = 3) except the control group (group I) by injecting 1 × 10^4 viable 4T1 (RRID: CVCL_0125) mice breast carcinoma cells (resuspended in 50 μl of PBS) into the inguinal fourth mammary fat pad, and the tumor was allowed to develop for 14 days ([37], [38]). Mice were randomly divided into three groups, viz., untreated tumor (group II), mice treated intraperitoneally with 1 mg//kg bodyweight of rolipram (group III), and mice receiving 5 mg/kg bodyweight of rolipram, intraperitoneally (group IV) ([39], [40]). After 14 days, the mice were sacrificed. Lung, kidney, liver, serum, and the tumors were collected for further experiments ([15]).
Mice mammary fat pad and mammary tumor tissues were processed as for histology, and 5 μm-thick sections were mounted on glass slides. The tissue sections were deparaffinized with xylene and hydrated with […] grades of alcohols (100% to 70%). Rehydrated sections were equilibrated in PBS. Antigen retrieval was performed by boiling the sections in a 0.1 M sodium citrate buffer (pH 6.0) for 10 min. […] The frequency (cell count) of positive and negative cells as well as the mean absorbance of the positive cells were plotted using MatPlotLib (RRID: SCR_008624), a Python (RRID: SCR_008394) 2D plotting library.

[1] = Histological analysis of liver of tumor-bearing mice; type: in vivo, BALB/c mice; settings: rolipram-treated tumor-bearing mice; dilation observed in untreated tumor-bearing mice
Description: as §1
Tissue samples of mammary tissue, lung, kidney, and liver from each group of mice were fixed in Bouin’s solution (Sigma–Aldrich; catalog no.: HT10132), dehydrated in graded alcohol, and embedded in paraffin wax. Thin sections (5 μm) of tissues were mounted on glass slides and stained with hematoxylin (Sigma–Aldrich; catalog no.: H3136), following rehydration with graded alcohol. The samples were again dehydrated with graded alcohol and stained with eosin and mounted with Dystyrene Plasticizer Xylene ([42]). […] For quantifying the number of cells in a unit area of histological section of lung, each section image was divided into 12 equal parts (dimensions: 480 px × 400 px). […]

[2] = Bodyweight of tumor-bearing mice; type: in vivo, BALB/c mice; settings: intraperitoneally
Description: as §1

MDA-MB-231 cells = experiment: Western blot analysis of protein expression; type: cell-based, human
Description: (§2) After treatment of cells with rolipram, proteins were extracted from cells by lysing the cells with radioimmunoprecipitation assay buffer, comprising of 150 mM NaCl, 1% Triton X-100, 0.5% sodium deoxycholate, and 0.1% SDS. Equal amount of proteins (40 μg) were resolved using SDS-PAGE before transferring onto nitrocellulose membrane (Immobilon-NC Transfer Membrane; Merck Millipore; catalog no.: HATF00010). The membranes were then incubated overnight with primary antibody at a dilution of 1:1000 at 4°C followed by incubation with secondary antibodies at a dilution of 1:5000 for 2 h at room temperature. Immune detection was performed using femtoLUCENT PLUS-HRP (G-Biosciences; catalog no.: 786-003), and the image was obtained from the Bio-Rad ChemiDoc XRS+ system. Analysis of protein expression was carried out using Bio-Rad Image Lab software (RRID: SCR_014210) and National Institutes of Health ImageJ software ([34]) (RRID: SCR_003070). All protein expressions were normalized against β-tubulin (loading control).

MCF-7 cells = experiment: Western blot analysis of protein expression; type: cell-based, human
Description: as §2

[3] = MDA-MB-231, IC50 dose, time course

With `COc1ccc(C2CNC(=O)C2)cc1OC1CCCC1` (stereo not drawn) [rolipram, Rolipram] the “reduction of GLI1 expression in tumor tissue” value (GLI1; 1 mg/kg bodyweight) was “twofold”, the “reduction of GLI1 expression in tumor tissue” value (GLI1; 5 mg/kg bodyweight) was “sixfold” and the hepatic vein dilation [1] was “not evident”. The “bodyweight of tumor-bearing mice” value ([2]; 1 mg/kg bodyweight) was “No significant changes”, the “bodyweight of tumor-bearing mice” value ([2]; 5 mg/kg bodyweight) was “No significant changes” and the “reduction of MMP9 expression” value (MDA-MB-231 cells; MDA-MB-231 (TNBC cells)) was “twofold”. For the same molecule, the “downregulation of expression of MMP2” value (MDA-MB-231 cells; MDA-MB-231, IC50 dose) was “twofold”, the “levels of phospho-Akt” value (MDA-MB-231 cells; MDA-MB-231, IC50 dose) was “reduced” and the “levels of phosphorylated-GSK3β” value (MDA-MB-231 cells; MDA-MB-231, IC50 dose) was “reduced levels”. For the same molecule, the “level of GLI2R” value (MDA-MB-231 cells; MDA-MB-231, IC50 dose, 48 h) was “decreased slightly”, the “level of GLI2FL” value (MDA-MB-231 cells; [3]) was “significantly decreased with time” and the “level of GLI3R” value (MDA-MB-231 cells; [3]) was “increased with time”. For the same molecule, the “levels of PKA” value (MDA-MB-231 cells; [3]) was “increased levels”, the “level of GLI1” value (MDA-MB-231 cells; MDA-MB-231, IC50 dose, time-dependent) was “reduced” and the “level of GLI2R” value (MDA-MB-231 cells; MDA-MB-231, IC50 dose, up to 24 h) was “increased up to 24 h”. The “elevated expression of PTEN” value (MDA-MB-231 cells; MDA-MB-231, IC50 dose, within 12 h) was “threefold”, the “level of E-cadherin” value (MDA-MB-231 cells; MDA-MB-231, after 24 h) was “no conclusive change” and the levels of vimentin (MDA-MB-231 cells; MDA-MB-231, after 48 h) was “decrease”. The “levels of GLI proteins” value (MDA-MB-231 cells; MDA-MB-231, cotreatment with H89 (10 μM), 24 h, vs control and H89 only) was “unaltered”, the “repressor forms of GLI2 and GLI3” value (MDA-MB-231 cells; MDA-MB-231, in combination with TAK-243 (0.1 μM), 24 h) was “failed to produce the repressor forms” and the “effects on expressions of MMPs, E-cadherin, and vimentin” value (MDA-MB-231 cells; MDA-MB-231, in the presence of TAK-243) was “failed to exert any of the aforementioned effects”. For the same molecule, the “reduction of MMP9 expression” value (MCF-7 cells; MCF-7 (hormone-responsive cells), 48 h) was “fourfold”, the “downregulation of expression of MMP2” value (MCF-7 cells; MCF-7, IC50 dose) was “twofold” and the “levels of phospho-Akt” value (MCF-7 cells; MCF-7, IC50 dose) was “reduced”. For the same molecule, the “levels of phosphorylated-GSK3β” value (MCF-7 cells; MCF-7, IC50 dose) was “reduced levels”, the “level of GLI2FL” value (MCF-7 cells; MCF-7, IC50 dose, time course) was “remained unchanged” and the “level of GLI2R” value (MCF-7 cells; MCF-7, IC50 dose, time course) was “increased with time”. The “level of GLI3R” value (MCF-7 cells; MCF-7, IC50 dose, time course) was “increased with time”, the “levels of PKA” value (MCF-7 cells; MCF-7, IC50 dose, time course) was “increased levels” and the “level of GLI1” value (MCF-7 cells; MCF-7, IC50 dose, time-dependent) was “reduced”. For the same molecule, the “elevated expression of PTEN” value (MCF-7 cells; MCF-7, IC50 dose, within 12 h) was “threefold”, the levels of vimentin (MCF-7 cells; MCF-7, after 48 h) was “decrease” and the “levels of GLI proteins” value (MCF-7 cells; MCF-7, cotreatment with H89 (10 μM), 24 h, vs control and H89 only) was “unaltered”. The “repressor forms of GLI2 and GLI3” value (MCF-7 cells; MCF-7, in combination with TAK-243 (0.1 μM), 24 h) was “failed to produce the repressor forms”, the “effects on expressions of MMPs, E-cadherin, and vimentin” value (MCF-7 cells; MCF-7, in the presence of TAK-243) was “failed to exert any of the aforementioned effects” and the “elevation of level of E-cadherin” value (MCF-7 cells; MCF-7, within 24 h) was “twofold”.
